Experimental data from patent US20250114338A1, “TETRAHYDRO-PYRIDO[3,4-b]INDOLE ESTROGEN RECEPTOR MODULATORS AND USES THEREOF” (Genentech, Inc., priority 2014, published 2025).

Each compound was assayed on ER-alpha MCF7 (assay: ER-alpha MCF7 HCS EC50; stated as measured by in vitro cell proliferation assays of Examples 902 and 903). Details: Homo sapiens, MCF7, MCF7 cells; Table 2.
Assay type: cell-based
Procedure, shortened: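 MCF7 cells seeded 1000-2000 cells/well for 16 h, then treated with nine-point 1:2 DMSO dilution series in quadruplicate at 37 °C, 5% CO2 for 4 days. Viable cells quantified by CellTiter-Glo ATP luminescence; EC50 calculated. Controls: fulvestrant at final 100 nM, DMSO 0.2% v/v.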

| EC50 | Compound |
| --- | --- |
| 142 pM | C[C@@H]1Cc2c([nH]c3ccccc23)[C@@H](c2c(F)cc(OC3CN(CCCF)C3)cc2F)N1CC1(F)CCC1 [Example 393, (1R,3R)-1-(2,6-difluoro-4-((1-(3-fluoropropyl)azetidin-3-yl)oxy)phenyl)-2-((1-fluorocyclobutyl)methyl)-3-methyl-2,3,4,9-tetrahydro-1H-pyrido[3,4-b]indole] |
| 230 pM | C[C@@H]1Cc2c([nH]c3ccccc23)[C@@H](c2c(F)cc(OCCN3CC(CF)C3)cc2F)N1C[C@H](F)CO [Example 394, (S)-3-((1R,3R)-1-(2,6-difluoro-4-(2-(3-(fluoromethyl)azetidin-1-yl)ethoxy)phenyl)-3-methyl-3,4-dihydro-1H-pyrido[3,4-b]indol-2(9H)-yl)-2-fluoropropan-1-ol] |
| 53 pM | C[C@@H]1Cc2c([nH]c3ccccc23)[C@@H](c2c(F)cc(OCCN3CC(CF)C3)cc2F)N1C[C@@H](F)CO [Example 395, (R)-3-((1R,3R)-1-(2,6-difluoro-4-(2-(3-(fluoromethyl)azetidin-1-yl)ethoxy)phenyl)-3-methyl-3,4-dihydro-1H-pyrido[3,4-b]indol-2(9H)-yl)-2-fluoropropan-1-ol] |
| 110 pM | C[C@@H]1Cc2c([nH]c3cc(F)ccc23)[C@@H](c2c(F)cc(NC3CN(CCCF)C3)cc2F)N1CC(F)(F)F [Example 396, N-(3,5-difluoro-4-((1R,3R)-7-fluoro-3-methyl-2-(2,2,2-trifluoroethyl)-2,3,4,9-tetrahydro-1H-pyrido[3,4-b]indol-1-yl)phenyl)-1-(3-fluoropropyl)azetidin-3-amine] |
| 33000 pM | C[C@H]1Cc2c([nH]c3cc(F)ccc23)[C@H](c2c(F)cc(NC3CN(CCCF)C3)cc2F)N1CC(F)(F)F [Example 397, N-(3,5-difluoro-4-((1S,3S)-7-fluoro-3-methyl-2-(2,2,2-trifluoroethyl)-2,3,4,9-tetrahydro-1H-pyrido[3,4-b]indol-1-yl)phenyl)-1-(3-fluoropropyl)azetidin-3-amine] |
| 110 pM | C[C@@H]1Cc2c([nH]c3cccc(F)c23)[C@@H](c2c(F)cc(NC3CN(CCCF)C3)cc2F)N1C[C@](C)(F)CO [Example 398, (S)-3-((1R,3R)-1-(2,6-difluoro-4-((1-(3-fluoropropyl)azetidin-3-yl)amino)phenyl)-5-fluoro-3-methyl-3,4-dihydro-1H-pyrido[3,4-b]indol-2(9H)-yl)-2-fluoro-2-methylpropan-1-ol] |
| 1100 pM | C[C@H]1Cc2c([nH]c3cccc(F)c23)[C@H](c2c(F)cc(NC3CN(CCCF)C3)cc2F)N1C[C@@](C)(F)CO [Example 399, (R)-3-((1S,3S)-1-(2,6-difluoro-4-((1-(3-fluoropropyl)azetidin-3-yl)amino)phenyl)-5-fluoro-3-methyl-3,4-dihydro-1H-pyrido[3,4-b]indol-2(9H)-yl)-2-fluoro-2-methylpropan-1-ol] |
| 23 pM | C[C@@H]1Cc2c([nH]c3cccc(F)c23)[C@@H](c2c(F)cc(NC3CN(CCCF)C3)cc2F)N1C[C@@](C)(F)CO [Example 400, (R)-3-((1R,3R)-1-(2,6-difluoro-4-((1-(3-fluoropropyl)azetidin-3-yl)amino)phenyl)-5-fluoro-3-methyl-3,4-dihydro-1H-pyrido[3,4-b]indol-2(9H)-yl)-2-fluoro-2-methylpropan-1-ol] |

Continued, compound first:

| Compound | EC50 |
| --- | --- |
| C[C@@H]1Cc2c([nH]c3ccccc23)[C@@H](c2c(F)cc(OC3CN(CCCF)C3)cc2F)N1C[C@@H](CO)C(F)(F)F [Example 376, (S)-2-(((1R,3R)-1-(2,6-difluoro-4-((1-(3-fluoropropyl)azetidin-3-yl)oxy)phenyl)-3-methyl-1,3,4,9-tetrahydro-2H-pyrido[3,4-b]indol-2-yl)methyl)-3,3,3-trifluoropropan-1-ol] | 1000 pM |
| C[C@@H]1Cc2c([nH]c3ccccc23)[C@@H](c2cnc(OC3CN(CCCF)C3)nc2)N1CC(C)(C)F [Example 377, (1R,3R)-2-(2-fluoro-2-methylpropyl)-1-(2-((1-(3-fluoropropyl)azetidin-3-yl)oxy)pyrimidin-5-yl)-3-methyl-2,3,4,9-tetrahydro-1H-pyrido[3,4-b]indole] | 500 pM |
| C[C@@H]1Cc2c([nH]c3ccccc23)[C@H](c2c(F)cc(OCCN3CC(CF)C3)cc2F)N1CC(C)(C)C(=O)O [Example 378, 3-[(1S,3R)-1-[2,6-difluoro-4-[2-[3-(fluoromethyl)azetidin-1-yl]ethoxy]phenyl]-3-methyl-1,3,4,9-tetrahydropyrido[3,4-b]indol-2-yl]-2,2-dimethyl-propanoic acid] | 28000 pM |
| C[C@@H]1Cc2c([nH]c3ccccc23)[C@@H](c2c(F)cc(OCCN3CC(CF)C3)cc2F)N1CC(C)(F)F [Example 379, (1R,3R)-1-(2,6-difluoro-4-(2-(3-(fluoromethyl)azetidin-1-yl)ethoxy)phenyl)-2-(2,2-difluoropropyl)-3-methyl-2,3,4,9-tetrahydro-1H-pyrido[3,4-b]indole] | 280 pM |
| C[C@@H]1Cc2c([nH]c3ccccc23)[C@@H](c2ccc([C@@H](O)C3CN(CCCF)C3)cc2)N1CC(C)(C)F [Example 380, (S)-(4-((1R,3R)-2-(2-fluoro-2-methylpropyl)-3-methyl-2,3,4,9-tetrahydro-1H-pyrido[3,4-b]indol-1-yl)phenyl)(1-(3-fluoropropyl)azetidin-3-yl)methanol] | 188 pM |
| C[C@@H]1Cc2c([nH]c3ccccc23)[C@@H](c2ccc([C@H](O)C3CN(CCCF)C3)cc2)N1CC(C)(C)F [Example 381, (R)-(4-((1R,3R)-2-(2-fluoro-2-methylpropyl)-3-methyl-2,3,4,9-tetrahydro-1H-pyrido [3,4-b]indol-1-yl)phenyl)(1-(3-fluoropropyl)azetidin-3-yl)methanol] | 605 pM |
| C[C@@H]1Cc2c([nH]c3ccccc23)[C@@H](c2c(F)cc(NC3CN(CCCF)C3)cc2F)N1CC(C)(C)C(=O)O [Example 382, 3-((1R,3R)-1-(2,6-difluoro-4-((1-(3-fluoropropyl)azetidin-3-yl)amino)phenyl)-3-methyl-1,3,4,9-tetrahydro-2H-pyrido[3,4-b]indol-2-yl)-2,2-dimethylpropanoic acid] | 1010 pM |
| C[C@@H]1Cc2c([nH]c3ccc(F)cc23)[C@@H](c2c(F)cc(OCCN3CC(CF)C3)cc2F)N1CC(F)F [Example 383, (1R,3R)-1-(2,6-difluoro-4-(2-(3-(fluoromethyl)azetidin-1-yl)ethoxy)phenyl)-2-(2,2-difluoroethyl)-6-fluoro-3-methyl-2,3,4,9-tetrahydro-1H-pyrido[3,4-b]indole] | 280 pM |
| C[C@H]1Cc2c([nH]c3ccc(F)cc23)[C@H](c2c(F)cc(OCCN3CC(CF)C3)cc2F)N1CC(F)F [Example 384, (1S,3S)-1-(2,6-difluoro-4-(2-(3-(fluoromethyl)azetidin-1-yl)ethoxy)phenyl)-2-(2,2-difluoroethyl)-6-fluoro-3-methyl-2,3,4,9-tetrahydro-1H-pyrido[3,4-b]indole] | 29000 pM |
| C[C@@H]1Cc2c([nH]c3ccc(F)cc23)[C@@H](c2c(F)cc(OC3CN(CCCF)C3)cc2F)N1CC(F)F [Example 385, (1R,3R)-1-(2,6-difluoro-4-((1-(3-fluoropropyl)azetidin-3-yl)oxy)phenyl)-2-(2,2-difluoroethyl)-6-fluoro-3-methyl-2,3,4,9-tetrahydro-1H-pyrido[3,4-b]indole] | 74 pM |
| C[C@H]1Cc2c([nH]c3ccc(F)cc23)[C@H](c2c(F)cc(OC3CN(CCCF)C3)cc2F)N1CC(F)F [Example 386, (1S,3S)-1-(2,6-difluoro-4-((1-(3-fluoropropyl)azetidin-3-yl)oxy)phenyl)-2-(2,2-difluoroethyl)-6-fluoro-3-methyl-2,3,4,9-tetrahydro-1H-pyrido[3,4-b]indole] | 23000 pM |
| C[C@@H]1Cc2c([nH]c3ccc(F)cc23)[C@@H](c2c(F)cc(NC3CN(CCCF)C3)cc2F)N1S(C)(=O)=O [Example 387, N-(3,5-difluoro-4-((1R,3R)-6-fluoro-3-methyl-2-(methylsulfonyl)-2,3,4,9-tetrahydro-1H-pyrido[3,4-b]indol-1-yl)phenyl)-1-(3-fluoropropyl)azetidin-3-amine] | 149 pM |
| C[C@H]1Cc2c([nH]c3ccc(F)cc23)[C@H](c2c(F)cc(NC3CN(CCCF)C3)cc2F)N1S(C)(=O)=O [Example 388, N-(3,5-difluoro-4-((1S,3S)-6-fluoro-3-methyl-2-(methylsulfonyl)-2,3,4,9-tetrahydro-1H-pyrido[3,4-b]indol-1-yl)phenyl)-1-(3-fluoropropyl)azetidin-3-amine] | 19000 pM |
| C[C@@H]1Cc2c([nH]c3ccc(F)cc23)[C@@H](c2c(F)cc(NC3CN(CCCF)C3)cc2F)N1CC(F)F [Example 389, N-(4-((1R,3R)-2-(2,2-difluoroethyl)-6-fluoro-3-methyl-2,3,4,9-tetrahydro-1H-pyrido[3,4-b]indol-1-yl)-3,5-difluorophenyl)-1-(3-fluoropropyl)azetidin-3-amine] | 56 pM |
| C[C@H]1Cc2c([nH]c3ccc(F)cc23)[C@H](c2c(F)cc(NC3CN(CCCF)C3)cc2F)N1CC(F)F [Example 390, N-(4-((1S,3S)-2-(2,2-difluoroethyl)-6-fluoro-3-methyl-2,3,4,9-tetrahydro-1H-pyrido[3,4-b]indol-1-yl)-3,5-difluorophenyl)-1-(3-fluoropropyl)azetidin-3-amine] | 9700 pM |

Same assay, conditions: MCF7 cells; Table 2

| EC50 | Compound |
| --- | --- |
| 150 pM | C[C@@H]1Cc2c([nH]c3ccccc23)[C@@H](c2c(F)cc(OC3CN(C4CC(CF)C4)C3)cc2F)N1CC(C)(C)F (stereo partly drawn) [Example 391, (1R,3R)-1-(2,6-difluoro-4-((1- cis-(3-(fluoromethyl)cyclobutyl)azetidin-3-yl)oxy)phenyl)-2-(2-fluoro-2-methylpropyl)-3-methyl-2,3,4,9-tetrahydro-1H-pyrido[3,4-b]indole] |
| 440 pM | C[C@@H]1Cc2c([nH]c3ccccc23)[C@@H](c2c(F)cc(OC3CN(C4CC(CF)C4)C3)cc2F)N1CC(C)(C)F (stereo partly drawn) [Example 392, (1R,3R)-1-(2,6-difluoro-4-((1- trans-(3-(fluoromethyl)cyclobutyl)azetidin-3-yl)oxy)phenyl)-2-(2-fluoro-2-methylpropyl)-3-methyl-2,3,4,9-tetrahydro-1H-pyrido[3,4-b]indole] |
